For one compound, MIC results are on record in article PMC6610938 (BMC Microbiology, 2019).

Values after ≈ are worked out from the molar mass of the structure shown.

In test [1] the test system is T1, Pseudomonas aeruginosa ATCC 27853.
T1 construct: ATCC 27853
Description: microbe, parasite or virus in culture. On the set-up: CLSI broth microdilution MIC in cation-adjusted Mueller Hinton broth, standard inoculum. Conditions: ATCC27853, inoculum 5 x 10^5 CFU/mL, run 1. The procedure:
(§1) Each strain was tested at the standard inoculum of 5 × 10^5 colony forming units (CFU)/mL, as well as at inocula lower (5 × 10^4) and greater (5 × 10^6) than the standard inoculum. Antibacterial susceptibility testing for each P. aeruginosa isolate obtained from the four isolate sources listed above was performed using standard CLSI broth microdilution methodology using cation-adjusted Mueller Hinton broth.

The subject of test [2] is T2, Pseudomonas aeruginosa CLB 24228.
T2 construct: CLB 24228
Put plainly: microbe, parasite or virus in culture. Further details: CLSI broth microdilution MIC in cation-adjusted Mueller Hinton broth, standard inoculum. Conditions: CLB24228, inoculum 5 x 10^5 CFU/mL, run 1. The protocol: as §1

Turning to `C[C@@H](O)[C@H]1C(=O)N2C(C(=O)O)=C(SCCNC=N)C[C@H]12` [IMI, imipenem], the MIC in test [1] amounted to 2 µg/mL (≈ 6.68 µM); in test [2] it was 32 µg/mL (≈ 107 µM).
